System: KB cell
Test: MTS assay, growth inhibition of KB cells
Type: cell-based
Conditions: Homo sapiens, at 10 μM concentration, incubated for 72 h, read-out: Inhibition rate (%) (growth inhibition rate of MTS assay)
Method: MTS assay was performed in determining the growth inhibition of cancer cells. MTS ((3-(4,5-dimethylthiazol-2-yl)-5-(3-carboxymethoxyphenyl)-2-(4-sulfophenyl)-2H-tetrazolium)), in the presence of phenazine methosulfate (PMS) and reductases, produces a formazan product that has an absorbance maximum at 490-500 nm. MTS assays (and closely related MTT assay) are commonly used to measure cell viabilities or survivals.
Briefly, KB/Hela, NCI-H460, A375, Colo205, HCT-116, U937, MCF-7, MDA-MB-231, A549, H1975 cells were seeded into 96-well plate at 4000, 4000, 2000, 2000, 2000 cells/well. After 24 h for attachment, test compound was added into each well and incubated for 72 h. A total of 20 μl of MTS reaction reagent containing the MTS (Promega, Madison, Wis.) and PMS in a ratio of 20:1 was added into each well to react with dehydrogenase enzyme in survival cells. After 3 h, the absorbance at 490 nm was monitored using Emax precision microplate reader (Molecular Devices, Sunnyvale, Calif.).
The growth inhibition rate of MTS assay at KB cell of these compounds (at 10 μM concentration) are list in Table 5.

| SMILES | inhibition at 10 µM |
| --- | --- |
| O=C(CCc1ccccc1)Nc1ncc(Cc2ccccc2)s1 [Compound 2, N-(5-Benzyl-thiazol-2-yl)-3-phenyl-propionamide] | 95.5% |
| O=C(/C=C/c1ccccc1)Nc1ncc(Cc2ccccc2)s1 [Compound 3, N-(5-Benzyl-thiazol-2-yl)-3-phenyl-acrylamide] | 94.3% |
| O=C(CCc1ccc(F)cc1)Nc1ncc(Cc2ccc3c(c2)OCO3)s1 [Compound 7, N-(5-Benzo[1,3]dioxol-5-ylmethyl-thiazol-2-yl)-3-(4-fluoro-phenyl)-propionamide] | 91.7% |
| O=C(CCc1cccnc1)Nc1ncc(Cc2ccc3c(c2)OCO3)s1 [Compound 8, N-(5-Benzo[1,3]dioxol-5-ylmethyl-thiazol-2-yl)-3-pyridin-3-yl-propionamide] | 90.6% |
| COc1ccc2cc(Cc3cnc(NC(=O)CCc4ccccc4)s3)ccc2c1 [Compound 14, N-[5-(6-Methoxy-naphthalen-2-ylmethyl)-thiazol-2-yl]-3-phenyl-propionamide] | 89.5% |
| COc1ccc(CCC(=O)Nc2ncc(Cc3ccc(OC)cc3)s2)cc1 [Compound 15, N-[5-(4-Methoxy-benzyl)-thiazol-2-yl]-3-(4-methoxy-phenyl)-propionamide] | 93% |
| COc1ccc(Cc2cnc(NC(=O)CCc3ccncc3)s2)cc1 [Compound 16, N-[5-(4-Methoxy-benzyl)-thiazol-2-yl]-3-pyridin-4-yl-propionamide] | 62% |
| COc1ccc(Cc2cnc(NC(=O)CCc3ccc(F)cc3)s2)cc1OC [Compound 18, N-[5-(3,4-Dimethoxy-benzyl)-thiazol-2-yl]-3-(4-fluoro-phenyl)-propionamide] | 96.6% |
| COc1ccc2cc(Cc3cnc(NC(=O)CCc4ccc(C)o4)s3)ccc2c1 [Compound 19, N-[5-(6-Methoxy-naphthalen-2-ylmethyl)-thiazol-2-yl]-3-(5-methyl-furan-2-yl)-propionamide] | 94.1% |
| COc1ccc(CCC(=O)Nc2ncc(Cc3ccc(OC)c(OC)c3)s2)cc1 [Compound 20, N-[5-(3,4-Dimethoxy-benzyl)-thiazol-2-yl]-3-(4-methoxy-phenyl)-propionamide] | 93.4% |
| Cc1ccc(CCC(=O)Nc2ncc(Cc3ccc4ccccc4c3)s2)o1 [Compound 21, 3-(5-Methyl-furan-2-yl)-N-(5-naphthalen-2-ylmethyl-thiazol-2-yl)-propionamide] | 97.1% |
| O=C(CCc1ccccc1)Nc1ncc(Cc2ccc3ccccc3c2)s1 [Compound 22, N-(5-Naphthalen-2-ylmethyl-thiazol-2-yl)-3-phenyl-propionamide] | 95.6% |
| O=C(CCc1ccc(F)cc1)Nc1ncc(Cc2ccc3ccccc3c2)s1 [Compound 23, 3-(4-Fluoro-phenyl)-N-(5-naphthalen-2-ylmethyl-thiazol-2-yl)-propionamide] | 95.8% |
| O=C(CCc1cccnc1)Nc1ncc(Cc2ccc3ccccc3c2)s1 [Compound 24, N-(5-Naphthalen-2-ylmethyl-thiazol-2-yl)-3-pyridin-3-yl-propionamide] | 95.2% |
| O=C(CCc1ccccc1)Nc1ncc(Cc2ccc(F)c(F)c2)s1 [Compound 25, N-[5-(3,4-Difluoro-benzyl)-thiazol-2-yl]-3-phenyl-propionamide] | 94.2% |
| COc1cccc(CCC(=O)Nc2ncc(Cc3ccc(F)c(F)c3)s2)c1 [Compound 26, N-[5-(3,4-Difluoro-benzyl)-thiazol-2-yl]-3-(3-methoxy-phenyl)-propionamide] | 92.9% |
| O=C(CCc1cccnc1)Nc1ncc(Cc2ccc(F)c(F)c2)s1 [Compound 27, N-[5-(3,4-Difluoro-benzyl)-thiazol-2-yl]-3-pyridin-3-yl-propionamide] | 91.2% |
| O=C(CCc1ccc(F)cc1)Nc1ncc(Cc2ccc(F)c(F)c2)s1 [Compound 28, N-[5-(3,4-Difluoro-benzyl)-thiazol-2-yl]-3-(4-fluoro-phenyl)-propionamide] | 95% |
| COc1cccc(CCC(=O)Nc2ncc(Cc3ccc(OC)c(OC)c3)s2)c1 [Compound 29, N-[5-(3,4-Dimethoxy-benzyl)-thiazol-2-yl]-3-(3-methoxy-phenyl)-propionamide] | 96.6% |
| Cc1ccc(CCC(=O)Nc2ncc(Cc3ccc(F)c(F)c3)s2)o1 [Compound 30, N-[5-(3,4-Difluoro-benzyl)-thiazol-2-yl]-3-(5-methyl-furan-2-yl)-propionamide] | 92.3% |

| SMILES | inhibition at 10 µM |
| --- | --- |
| COc1ccc(Cc2cnc(NC(=O)CCc3ccc(C)o3)s2)cc1OC [Compound 31, N-[5-(3,4-Dimethoxy-benzyl)-thiazol-2-yl]-3-(5-methyl-furan-2-yl)-propionamide] | 95.8% |
| O=C(Nc1ncc(Cc2ccc(F)c(F)c2)s1)OCc1ccccc1 [Compound 32, [5-(3,4-Difluoro-benzyl)-thiazol-2-yl]-carbamic acid benzyl ester] | 52.7% |
| O=C(Nc1ncc(Cc2ccc3c(c2)OCO3)s1)OCc1ccccc1 [Compound 33, (5-Benzo[1,3]dioxol-5-ylmethyl-thiazol-2-yl)-carbamic acid benzyl ester] | 92.4% |
| O=C(CCc1ccccc1)Nc1ncc(Cc2c(F)c(F)c(F)c(F)c2F)s1 [Compound 34, N-(5-Pentafluorophenylmethyl-thiazol-2-yl)-3-phenyl-propionamide] | 92.8% |
| COc1cccc(CCC(=O)Nc2ncc(Cc3c(F)c(F)c(F)c(F)c3F)s2)c1 [Compound 35, 3-(3-Methoxy-phenyl)-N-(5-pentafluorophenylmethyl-thiazol-2-yl)-propionamide] | 90.4% |
| O=C(CCc1cccnc1)Nc1ncc(Cc2c(F)c(F)c(F)c(F)c2F)s1 [Compound 36, N-(5-Pentafluorophenylmethyl-thiazol-2-yl)-3-pyridin-3-yl-propionamide] | 94.3% |
| O=C(CCc1cccc(F)c1)Nc1ncc(Cc2ccc3ccccc3c2)s1 [Compound 37, 3-(3-Fluoro-phenyl)-N-(5-naphthalen-2-ylmethyl-thiazol-2-yl)-propionamide] | 94.4% |
| COc1cccc(CCC(=O)Nc2ncc(Cc3ccc4ccccc4c3)s2)c1 [Compound 38, 3-(3-Methoxy-phenyl)-N-(5-naphthalen-2-ylmethyl-thiazol-2-yl)-propionamide] | 94.2% |
| O=C(CCc1ccc(F)cc1)Nc1ncc(Cc2ccc(-c3ccccc3)cc2)s1 [Compound 39, N-(5-Biphenyl-4-ylmethyl-thiazol-2-yl)-3-(4-fluoro-phenyl)-propionamide] | 94% |
| O=C(CCc1cccnc1)Nc1ncc(Cc2ccc(-c3ccccc3)cc2)s1 [Compound 40, N-(5-Biphenyl-4-ylmethyl-thiazol-2-yl)-3-pyridin-3-yl-propionamide] | 58.8% |
| COc1cc(Cc2cnc(NC(=O)CCc3ccccc3)s2)ccc1OC(=O)OCc1ccccc1 [Compound 41, Carbonic acid benzyl ester 2-methoxy-4-[2-(3-phenyl-propionylamino)-thiazol-5-ylmethyl]-phenyl ester] | 95.8% |
| COc1cc(Cc2cnc(NC(=O)CCc3cccnc3)s2)ccc1OC(=O)OCc1ccccc1 [Compound 42, Carbonic acid benzyl ester 2-methoxy-4-[2-(3-pyridin-3-yl-propionylamino)-thiazol-5-ylmethyl]-phenyl ester] | 91.2% |
| COc1cccc(CCC(=O)Nc2ncc(Cc3ccc(OC(=O)OCc4ccccc4)c(OC)c3)s2)c1 [Compound 43, Carbonic acid benzyl ester 2-methoxy-4-{2-[3-(3-methoxy-phenyl)-propionylamino]-thiazol-5-ylmethyl}-phenyl ester] | 95.6% |
| COc1ccc(Cc2cnc(NC(=O)/C=C/c3ccc(C)o3)s2)cc1 [Compound 44, N-[5-(4-Methoxy-benzyl)-thiazol-2-yl]-3-(5-methyl-furan-2-yl)-acrylamide] | 93.1% |
| O=C(CCc1ccc(F)cc1)Nc1ncc(Cc2ccc(C(F)(F)F)cc2)s1 [Compound 45, 3-(4-Fluoro-phenyl)-N-[5-(4-trifluoromethyl-benzyl)-thiazol-2-yl]-propionamide] | 94% |
| O=C(CCc1cccnc1)Nc1ncc(Cc2ccc(C(F)(F)F)cc2)s1 [Compound 46, 3-Pyridin-3-yl-N-[5-(4-trifluoromethyl-benzyl)-thiazol-2-yl]-propionamide] | 96% |
| COc1cccc(CCC(=O)Nc2ncc(Cc3ccc(C(F)(F)F)cc3)s2)c1 [Compound 48, 3-(3-Methoxy-phenyl)-N-[5-(4-trifluoromethyl-benzyl)-thiazol-2-yl]-propionamide] | 95.3% |
| COc1cc(Cc2cnc(NC(=O)CCc3cccnc3)s2)cc(OC)c1OC [Compound 50, 3-Pyridin-3-yl-N-[5-(3,4,5-trimethoxy-benzyl)-thiazol-2-yl]-propionamide] | 97.2% |
| COc1ccc(Cc2cnc(NC(=O)CCc3ccc(-c4ccccc4)cc3)s2)cc1 [Compound 51, 3-Biphenyl-4-yl-N-[5-(4-methoxy-benzyl)-thiazol-2-yl]-propionamide] | 96.1% |
| COc1ccc(Cc2cnc(NC(=O)C(C)Cc3ccc(F)cc3)s2)cc1 (stereo not shown) [Compound 57, 3-(4-Fluoro-phenyl)-N-[5-(4-methoxy-benzyl)-thiazol-2-yl]-2-methyl-propionamide] | 93.2% |

Source: patent US8883793B2, “Tubulin inhibitors and methods of using the same” (Development Center for Biotechnology, priority 2010, dated 2014)
